Results published in patent US11440887B2, “Substituted 1,2,3,4-tetrahydroquinolines as inhibitors of repair enzyme 8-oxoguanine deoxyribonucleic acid glycosylase activity” (The Board of Trustees of the Leland Stanford Junior …, priority 2017, dated 2022).
Several values for one entry are separate records, joined by “and”; a condition that tells them apart may be missing. Equal values may be shown once.

Assays:
[1] = test system: Caco-2 cells (clone C2BBe1); assay: CACO-2 permeability assay; assay type: in vitro ADME; conditions: for Recovery: 5 μM, 120 minutes; for Papp AVG: average; for Papp R1: replicate 1
Method: Methods: Caco-2 cells (clone C2BBe1) were obtained from American Type Culture Collection (Manassas, Va.). Cell monolayers were grown to confluence on collagen-coated, microporous membranes in 12-well assay plates. Details of the plates and their certification are shown below. The permeability assay buffer was Hanks' balanced salt solution containing 10 mM HEPES and 15 mM glucose at a pH of 7.4. The buffer in the receiver chamber also contained 1% bovine serum albumin. The dosing solution concentration was 5 μM of test article in the assay buffer. Cell monolayers were dosed on the apical side (A-to-B) or basolateral side (B-to-A) and incubated at 37° C. with 5% CO2 in a humidified incubator. Samples were taken from the donor and receiver chambers at 120 minutes. Each determination was performed in duplicate. The flux of Lucifer yellow was also measured post-experimentally for each monolayer to ensure no damage was inflicted to the cell monolayers during the flux period. All samples were assayed by LC-MS/MS using electrospray ionization.

OGG1 [2] = molecular target: T1, OGG1 (Homo sapiens (Human), UniProt O15527); assay: Surface plasmon resonance (SPR) binding to OGG1
Method: Additional embodiments utilize surface plasmon resonance (SPR) to investigate the binding of various compounds to OGG1. […] Specifically, FIG. 8A illustrates a sensorgram plot of binding response versus time, while FIG. 8B illustrates binding response versus concentration of an inhibitor. Further, FIG. 8C provides Ka, Kd and KD values that are calculated for compounds of various embodiments. These figures indicate that certain embodiments bind strongly to OGG1.

OGG1 [3] = molecular target: T1, OGG1; assay: Km and Kcat study (Michaelis-Menten / Lineweaver-Burk) of OGG1 with inhibitor; assay type: biochemical
Method: Methods: For Michaelis-Menten curves: Inhibitor 41 and hOGG1 (100 nM) were incubated in NEBuffer 4 (1×) with BSA (1×) at 37° C. (15 min) in 100 μL reaction volumes in a black 96-well plate. After that, OGR1 (0.8-10 μM) was added to the reaction mixture. Fluorescence at 460 nm was measured on a Thermo Fluoroskan Ascent FL fluorescence plate reader (Aex=355 nm). The initial rate (12 min) was calculated. Lineweaver-Burk plot was leaded from the Michaelis-Menten curves. Km and Vmax were calculated from the equation. Kcat was calculated from Kcat=Vmax/[enzyme].

hABH3 = hABH3 (Homo sapiens (Human), UniProt Q96Q83); assay: ABH3 assay (MAQ probe); assay type: biochemical; conditions: 20 μM inhibitor
Method: (§1) Enzyme (0.5 μM) was pre-incubated for 5 minutes with 20 μM inhibitor or vehicle or at 37° C. in 50 mM HEPES buffer (pH 8.0) containing 75 μM Fe(NH4)2(SO4)2, (See, e.g., Beharry, A. A., et al., J. Am. Chem. Soc. 2016, 138, 3647-3650, the disclosure of which is incorporated herein by reference.) 1 mM α-ketoglutarate, 2 mM Sodium ascorbate, 50 μg/ml BSA and 0.4 mg/ml Catalase. The MAQ probe (1 μM) was added and fluorescent signal plotted over 10 minutes to calculate initial rate. Inhibitor rates were normalized against the vehicle control rate.3

NUDT16 = NUDT16 (Homo sapiens (Human), UniProt Q96DE0); assay: NUDT16 assay; assay type: biochemical; conditions: 20 μM
Method: After 1 h incubation at 37° C., 5 μL of this reaction solution was added to 20 μL Kinase-Glo Luminescent Kinase Assay reaction solution (prepared as instructed for the ATP determination kit) in a 96 well plate. The bioluminescence signal was recorded at 1 min intervals over 10 min.

[4] = test system: DUT (deoxyuridine 5′-triphosphate nucleotidohydrolase); conditions: 20 μM
ABH2 = ABH2 (Homo sapiens (Human), UniProt Q6NS38); assay: ABH2 assay; assay type: biochemical; conditions: 20 μM inhibitor
Method: as §1, with “Fe(NH4)2(SO4)2,” for “Fe(NH4)2(SO4)2, (See, e.g., Beharry, A. A., et al., J. Am. Chem. Soc. 2016, 138, 3647-3650, the disclosure of which is incorporated herein by reference.)”, “The” for “The MAQ”, “rate.” for “rate.3”

HeLa cells = assay: MTT assay, HeLa; assay type: cell-based, human; conditions: 24 h
Method: Methods: HEK293T cells (concentration of 1.6×10^4 cells per well) and HeLa cells (concentration of 1.2×10^4 cells per well) were seeded to 96-well plate in supplemented DMEM culture medium (10% FBS, 100 U Pen./Strep.) and incubated for 30 h (HEK293T cells) and 16 h (HeLa cells) at +37° C. and 5% CO2. […] After the incubation period, 10 μL of the MTT labeling reagent (final concentration 0.5 mg/ml) was added to each well, and incubated at +37° C. and 5%. 100 μl of the solubilization solution was added into each well, and incubated for 20 h at +37° C. and 5%. Absorbance of the samples was measured by using a microplate reader Tecan Infinite M1000 at 550, and 650 nm. […] In the rest of the samples (10 μM, 1 μM, 100 nM, and 10 nM) concentration of DMSO was at the level of 1%. The controls were prepared: Ctrl—cells cultured only in the supplemented DMEM; Ctrl 5% DMSO—cells cultured in 5% DMSO in the supplemented DMEM; Ctrl 1% DMSO—cells cultured in 1% DMSO in the supplemented DMEM.

[5] = Half-life / pharmacokinetics after intraperitoneal dosing; assay type: in vivo; conditions: mice, IP, 3 mg/kg
Method: Methods: Each OGG1 inhibitor was dosed by intraperitoneal (IP) and oral (PO) routes of administration at a target dose of 3 mg/kg. Blood samples were collected up to 24 hours post-dose, and blood concentrations of the test articles were determined by LC-MS/MS. Pharmacokinetic parameters were determined using Phoenix WinNonlin (v8.0) software

T1 sequence (O15527 whole entry): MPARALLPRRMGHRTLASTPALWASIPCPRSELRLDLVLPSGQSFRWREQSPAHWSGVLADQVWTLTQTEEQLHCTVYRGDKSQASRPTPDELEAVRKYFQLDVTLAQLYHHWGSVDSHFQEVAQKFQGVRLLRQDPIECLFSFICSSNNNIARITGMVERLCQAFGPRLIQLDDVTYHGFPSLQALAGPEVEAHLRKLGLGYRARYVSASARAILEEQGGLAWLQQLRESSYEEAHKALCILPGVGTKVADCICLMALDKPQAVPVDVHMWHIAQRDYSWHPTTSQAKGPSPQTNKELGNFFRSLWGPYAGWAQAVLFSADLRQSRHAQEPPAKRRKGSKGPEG
Sequence of hABH3 (Q96Q83 whole entry): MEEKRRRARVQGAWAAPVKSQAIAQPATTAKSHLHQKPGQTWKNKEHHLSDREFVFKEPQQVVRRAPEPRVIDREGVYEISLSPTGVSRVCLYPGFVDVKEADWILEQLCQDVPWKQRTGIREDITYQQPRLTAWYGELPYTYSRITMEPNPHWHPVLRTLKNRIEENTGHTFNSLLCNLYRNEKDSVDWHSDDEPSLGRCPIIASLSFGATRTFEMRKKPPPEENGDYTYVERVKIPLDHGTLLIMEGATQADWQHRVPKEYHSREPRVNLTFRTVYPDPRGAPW
Sequence of ABH2 (Q6NS38 whole entry, species assumed): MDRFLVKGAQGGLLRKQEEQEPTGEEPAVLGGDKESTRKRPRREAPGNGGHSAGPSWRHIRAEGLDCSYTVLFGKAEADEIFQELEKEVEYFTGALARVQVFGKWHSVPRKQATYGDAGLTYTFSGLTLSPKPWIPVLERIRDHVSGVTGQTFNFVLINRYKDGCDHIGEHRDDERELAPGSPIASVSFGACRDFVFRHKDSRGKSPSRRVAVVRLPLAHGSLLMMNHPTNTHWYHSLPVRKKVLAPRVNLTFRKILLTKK
Sequence of NUDT16 (Q96DE0 whole entry, species assumed): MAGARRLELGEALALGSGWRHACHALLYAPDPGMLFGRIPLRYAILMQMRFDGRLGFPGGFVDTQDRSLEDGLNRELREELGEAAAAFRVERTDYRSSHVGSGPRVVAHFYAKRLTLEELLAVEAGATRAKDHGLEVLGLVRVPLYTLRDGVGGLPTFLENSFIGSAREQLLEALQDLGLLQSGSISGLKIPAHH

Compound: NC(=O)c1cccc(-c2ccc(S(=O)(=O)Nc3ccc4c(c3)N(C(=O)C3CC3)CCC4)cc2)c1 [Compound 41]
- Recovery ([1]; A-to-B): 65%
- Papp AVG ([1]; A-to-B): 12.5 10^−6 cm/s
- Papp R1 ([1]; A-to-B): 14.2 10^−6 cm/s
- Efflux Ratio ([1]; B-to-A / A-to-B): 6.2
- Recovery ([1]; B-to-A): 79%
- Papp AVG ([1]; B-to-A): 77.4 10^−6 cm/s
- Papp R1 ([1]; B-to-A): 63.5 10^−6 cm/s
- binding to OGG1 by SPR (OGG1 [2]): binds strongly
- Kcat (OGG1 [3]; OGG1 with 200 nM 41): 0.057 s⁻¹
- Kcat/Km (OGG1 [3]; OGG1 with 200 nM 41): 0.0070 s^−1μM^−1
- Km (OGG1 [3]; OGG1 with 200 nM 41): 8.2 µM
- Kcat (OGG1 [3]; OGG1 with 2 μM 41): 0.040 s⁻¹
- Kcat/Km (OGG1 [3]; OGG1 with 2 μM 41): 0.022 s^−1μM^−1
- Km (OGG1 [3]; OGG1 with 2 μM 41): 1.8 µM
- ABH3 enzyme activity in the presence of the inhibitor (hABH3): ~100%
- NUDT16 enzyme activity in the presence of the inhibitor (NUDT16): ~70%
- activity of compound against DUT (selectivity) [4]: low
- ABH2 enzyme activity in the presence of the inhibitor (ABH2): > 90%
- cytotoxicity by MTT assay (HeLa cells; 10 nM to 10 μM): little or no cytotoxicity
- toxicity by MTT assay (HeLa cells; 100 μM): 30-50%
- average exposure, dose-normalized AUClast [5]: 543±281 hr*kg*ng/m L/m g
- maximum blood concentrations (average) [5]: 1210 ± 206 ng/mL
- time of maximum blood concentrations post dosing [5]: 15 min
- Half-life Mean ([5]; mean of three replicates, listed as SU0268): approximately 4 hr and 4.02±0.709 hr and 4.02 hr
- Half-life R1 ([5]; replicate 1): 4.84 h
- Half-life R3 ([5]; replicate 3): 3.60 h
